Target: NADH-ubiquinone oxidoreductase chain 1 (Bos taurus, UniProt P03887)
Experiment: Inhibition Assay
Excerpt: Inhibition assay using NADH-ubiquinone oxidoreductase (complex I).

Sequence of NADH-ubiquinone oxidoreductase chain 1 (P03887 whole entry): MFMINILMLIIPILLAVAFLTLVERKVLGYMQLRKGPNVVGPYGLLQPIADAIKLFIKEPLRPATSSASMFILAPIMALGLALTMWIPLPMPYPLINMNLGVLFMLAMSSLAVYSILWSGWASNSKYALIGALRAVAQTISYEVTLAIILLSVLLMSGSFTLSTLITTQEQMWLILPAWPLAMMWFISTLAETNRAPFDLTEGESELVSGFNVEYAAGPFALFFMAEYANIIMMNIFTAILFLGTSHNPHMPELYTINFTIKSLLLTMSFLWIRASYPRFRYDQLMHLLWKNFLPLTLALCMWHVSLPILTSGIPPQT

IC50 [nM] | SMILES
12 | c1ccc(CCCCCCCN2CCN(CCCCCCCc3ccccc3)CC2)cc1 [Piperazine derivative, 18]
2.2 | c1ccc(CCCCCCCCN2CCN(CCCCCCCCc3ccccc3)CC2)cc1 [Piperazine derivative, 19]
3.6 | c1ccc(CCCCCCCCCN2CCN(CCCCCCCCCc3ccccc3)CC2)cc1 [Piperazine derivative, 20]
1300 | c1ccc(CCCCN2CCN(CCCCc3ccccc3)CC2)cc1 [Piperazine derivative, 21]
1100 | C[N+]1(C[C@H](O)CCCCCc2ccccc2)CCN(C[C@H](O)CCCCCc2ccccc2)CC1 [Piperazine derivative, 22]
4700 | C[N+]1(C[C@H](O)CCCCCc2ccccc2)CC[N+](C)(C[C@H](O)CCCCCc2ccccc2)CC1 (some centres undefined) [Piperazine derivative, 23]
1 | N#[N+]Nc1c(F)c(F)c(COCCCCC[C@@H](O)CN2CCN(C[C@H](O)CCCCCOc3ccc(I)cc3)CC2)c(F)c1F [Piperazine derivative, 24]

More lines, now with the values behind:

SMILES | IC50 [nM]
CCCCCC(O)CN1CCN(CC(O)CCCCC)CC1 (centres undefined) [Piperazine derivative, 4] | > 22000
CCCCCCCCCCC(O)CN1CCN(CC(O)CCCCCCCCCC)CC1 (centres undefined) [Piperazine derivative, 5] | 2.6
CCCCCCCCCCCCCCC(O)CN1CCN(CC(O)CCCCCC)CC1 (centres undefined) [Piperazine derivative, 6] | 26
CCCCCCCCCCCCCCCCC(O)CN1CCN(CC(O)CCCC)CC1 (centres undefined) [Piperazine derivative, 7] | 110
O[C@H](CCCCCc1ccccc1)CN1CCN(C[C@H](O)CCCCCc2ccccc2)CC1 [Piperazine derivative, 8] | 12
O[C@H](CCCCCCc1ccccc1)CN1CCN(C[C@H](O)CCCCCCc2ccccc2)CC1 [Piperazine derivative, 9] | 1.7
O[C@H](CCCCCCCc1ccccc1)CN1CCN(C[C@H](O)CCCCCCCc2ccccc2)CC1 [Piperazine derivative, 10] | 1.2
O[C@H](CCCCCCCCCc1ccccc1)CN1CCN(C[C@H](O)CCCCCCCCCc2ccccc2)CC1 [Piperazine derivative, 11] | 5.9
O[C@@H](CCCCCCc1ccccc1)CN1CCN(C[C@@H](O)CCCCCCc2ccccc2)CC1 [Piperazine derivative, 12] | 2.3
O[C@H](CCCCCCCc1ccccc1)CN1CCCN(C[C@H](O)CCCCCCCc2ccccc2)CC1 [Piperazine derivative, 13] | 1.7
O[C@H](CCCCCCCc1ccccc1)CN1C[C@H]2C[C@@H]1CN2C[C@H](O)CCCCCCCc1ccccc1 [Piperazine derivative, 14] | 2.8
CN(C[C@H](O)CCCCCCCc1ccccc1)[C@H]1CCCC[C@@H]1N(C)C[C@H](O)CCCCCCCc1ccccc1 [Piperazine derivative, 15] | 670

— BindingDB's records for doi:10.1021/bi8010362 (Kyoto University, 2008)
